Earlier results as cited in patent EP3124016B1, “ANTIPSORIATIC EMULSION COMPOSITION COMPRISING CEFAZOLIN” (Warszawski Uniwersytet Medyczny, priority 2015, dated 2017).
Structures can show the parent of a compound that is named as a salt.

Details: 1% aqueous solution

Cc1nnc(SCC2=C(C(=O)O)N3C(=O)[C@@H](NC(=O)Cn4cnnn4)[C@H]3SC2)s1 [cefazolin sodium salt]
time for which eye drops were stable (stored at 4°C): 42 days | time for which stability lasted (eye drops, storage in room temperature): only for a few days
